{
  "source": "paper PMC7112044",
  "about": "(Bioorganic Chemistry, 2008)",
  "key": {"SARS 3CL^pro": {"biological_target": "SARS 3CL^pro (Severe acute respiratory syndrome coronavirus, UniProt P0C6X7)", "experiment": "biochemical", "format": "biochemical, SARS-CoV"}, "3CL^pro": {"biological_target": "3CL^pro (Severe acute respiratory syndrome coronavirus, UniProt P0C6X7)", "format": "binding, SARS-CoV"}, "[1]": {"settings": "pH 7, read-out: Inhibition (100 μM)"}},
  "note": "Where two headings read alike, the source gives them in different places.",
  "data": [
    {"molecule": "2-(5-Bromopyridin-3-yl)-2,2-difluoro-1-(furan-2- yl)ethanone [Compound 12c]", "values": [
      {"measurement": "Inhibition (100 μM)", "setting": "SARS 3CL^pro; pH 7", "value": 21, "unit": "%"}
    ]},
    {"molecule": "O=C(c1cccs1)C(F)c1cccnc1", "note": "(centres unmarked) [Compound 6, 2-Fluoro-2-(pyridin-3-yl)-1-(thiophen-2-yl)ethanone]", "values": [
      {"measurement": "change of inhibition after 2 h preincubation with 3CL^pro", "setting": "SARS 3CL^pro", "value": "no improved inhibition"},
      {"measurement": "inhibition at 100 µM", "setting": "SARS 3CL^pro; [1]", "value": 10, "unit": "%"}
    ]},
    {"molecule": "O=C(c1cccs1)C(F)(F)c1cccnc1", "note": "[Compound 7, 2,2-difluoro-2-(pyridin-3-yl)-1-(thiophen-2-yl)ethanone]", "values": [
      {"measurement": "change of inhibition after 2 h preincubation with 3CL^pro", "setting": "SARS 3CL^pro", "value": "no improved inhibition"},
      {"measurement": "potency of inhibition relative to pyridinyl ester 1", "setting": "SARS 3CL^pro", "value": "2- to 3 fold"},
      {"measurement": "inhibition at 100 µM", "setting": "SARS 3CL^pro; [1]", "value": 38, "unit": "%"}
    ]},
    {"molecule": "O=C(Cc1cncc(Cl)c1)c1ccco1", "note": "[Compound 11a, 2-(5-Chloropyridin-3-yl)-1-(furan-2-yl)ethanone]", "values": [
      {"measurement": "inhibition at 100 µM", "setting": "SARS 3CL^pro; read-out: Inhibition (100 μM)", "value": "< 10", "unit": "%"}
    ]},
    {"molecule": "O=C(Cc1cccc(Cl)c1)c1ccco1", "note": "[Compound 11b, 2-(3-Chlorophenyl)-1-(furan-2-yl)ethanone]", "values": [
      {"measurement": "inhibition at 100 µM", "setting": "SARS 3CL^pro; read-out: Inhibition (100 μM)", "value": "< 10", "unit": "%"}
    ]},
    {"molecule": "O=C(Cc1cncc(Br)c1)c1ccco1", "note": "[Compound 11c, 2-(5-Bromopyridin-3-yl)-1-(furan-2-yl)ethanone]", "values": [
      {"measurement": "inhibition at 100 µM", "setting": "SARS 3CL^pro; read-out: Inhibition (100 μM)", "value": "< 10", "unit": "%"}
    ]},
    {"molecule": "O=C(Cc1cncc(Br)c1)c1ccc(-c2ccc(Cl)cc2)o1", "note": "[Compound 11d, 2-(5-Bromopyridin-3-yl)-1-(5-(4-chlorophenyl)furan-2-yl)ethanone]", "values": [
      {"measurement": "mass change in the major mass peak of 3CL^pro", "setting": "3CL^pro", "value": "no mass change"},
      {"measurement": "change of inhibitory activity after 2 h preincubation with 3CL^pro", "setting": "SARS 3CL^pro", "value": "no improved inhibitory activity"}
    ]},
    {"molecule": "O=C(c1ccco1)C(F)c1cncc(Cl)c1", "note": "(centres unmarked) [Compound 12a, 2-(5-Chloropyridin-3-yl)-2-fluoro-1-(furan-2-yl)ethanone]", "values": [
      {"measurement": "inhibition at 100 µM", "setting": "SARS 3CL^pro; [1]", "value": 14, "unit": "%"}
    ]},
    {"molecule": "O=C(c1ccco1)C(F)c1cccc(Cl)c1", "note": "(centres unmarked) [Compound 12b, 2-(3-Chlorophenyl)-2-fluoro-1-(furan-2-yl)ethanone]", "values": [
      {"measurement": "inhibition at 100 µM", "setting": "SARS 3CL^pro; [1]", "value": 15, "unit": "%"}
    ]},
    {"molecule": "O=C(c1ccc(-c2ccc(Cl)cc2)o1)C(F)c1cncc(Br)c1", "note": "(centres unmarked) [Compound 12d, 2-(5-Bromopyridin-3-yl)-1-(5-(4-chlorophenyl)furan-2-yl)-2-fluoroethanone]", "values": [
      {"measurement": "mass change in the major mass peak of 3CL^pro", "setting": "3CL^pro", "value": "no mass change"},
      {"measurement": "change of inhibitory activity after 2 h preincubation with 3CL^pro", "setting": "SARS 3CL^pro", "value": "no improved inhibitory activity"}
    ]},
    {"molecule": "O=C(c1ccco1)C(F)(F)c1cncc(Cl)c1", "note": "[Compound 13a, 2-(5-Chloropyridin-3-yl)-2,2-difluoro-1-(furan-2-yl)ethanone]", "values": [
      {"measurement": "inhibition at 100 µM", "setting": "SARS 3CL^pro; [1]", "value": 27, "unit": "%"}
    ]},
    {"molecule": "O=C(c1ccco1)C(F)(F)c1cccc(Cl)c1", "note": "[Compound 13b, 2-(3-Chlorophenyl)-2,2-difluoro-1-(furan-2-yl)ethanone]", "values": [
      {"measurement": "inhibition at 100 µM", "setting": "SARS 3CL^pro; [1]", "value": 13, "unit": "%"}
    ]},
    {"molecule": "O=C(c1ccc(-c2ccc(Cl)cc2)o1)C(F)(F)c1cncc(Br)c1", "note": "[Compound 13d, 2-(5-Bromopyridin-3-yl)-1-(5-(4-chlorophenyl)furan-2-yl)-2,2-difluoroethanone]", "values": [
      {"measurement": "mass change in the major mass peak of 3CL^pro", "setting": "3CL^pro", "value": "no mass change"},
      {"measurement": "change of inhibitory activity after 2 h preincubation with 3CL^pro", "setting": "SARS 3CL^pro", "value": "no improved inhibitory activity"}
    ]},
    {"molecule": "O=C(Cc1cncc(Br)c1)c1cc(-c2ccc(Cl)cc2)on1", "note": "[Compound 28, 2-(5-Bromopyridin-3-yl)-1-(5-(4-chlorophenyl)isoxazol-3-yl)ethanone]", "values": [
      {"measurement": "inhibition at 100 µM", "setting": "SARS 3CL^pro; [1]", "value": 35, "unit": "%"}
    ]}
  ]
}
